Results as given in patent publication US20250179059A1 (The Regents of the University of California, priority 2021, published 2025).

Tests used:
[1] = system: human SKM-1 acute myeloid leukemia cells; assay: SKM-1 antiproliferation cell-based assay (ATPlite); conditions: Homo sapiens, SKM-1, 96 h, SKM-1 antiproliferation assay, 4 days, Table C2
In short: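 Log-phase cells in RPMI 1640/15% FBS were seeded at 34722 cells/mL and exposed for 4 days to nine-concentration DMSO serial dilutions in triplicate. Viability was read as ATP luminescence (ATPlite 1step), and IC50 values came from variable-slope non-linear regression.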

[2] = biological target: T1, human BRD4 bromodomain II (Homo sapiens, UniProt O60885); assay: Bromodomain binding assay (AlphaScreen), BRD4 BDII; conditions: AlphaScreen assay, Table C2; read-out: BRD4 BDII IC50
T1 construct: human BRD4 bromodomain II [based on Genbank NM_058243, residues 349-460]; host or cells: E. coli
In short: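 AlphaScreen competition with biotinylated H4 peptide (aa 1-21, K5/K8/K12/K16Ac), using nickel-chelate acceptor and streptavidin donor beads. Targets were His6-BRD4 BDI (44-170) or BDII (349-460), with a 30 min compound preincubation over a 10-point 3-fold series. IC50 was fitted from percentage peptide binding.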

| GI50 [1] [nM] | IC50 [2] [nM] | Structure (SMILES) |
| --- | --- | --- |
| 0.3 to 30 | 0.01 to 1 | C[C@@H]1CN(c2cc(-c3cc(F)cc(-c4ccc(-n5ccn(C)c5=O)c(Cl)c4)c3O)cc3[nH]ccc23)CCN1 [Example 551, (R)-1-(3-chloro-5′-fluoro-2′-hydroxy-3′-(4-(3-methylpiperazin-1-yl)-1H-indol-6-yl)-[1,1′-biphenyl]-4-yl)-3-methyl-1H-imidazol-2(3H)-one] |
| 0.3 to 30 | 0.01 to 1 | Cn1ccn(-c2ccc(-c3cc(F)cc(-c4cc(-c5cn[nH]c5)nc(N5CCNCC5)c4)c3O)cc2Cl)c1=O [Example 552, 1-(3-chloro-5′-fluoro-2′-hydroxy-3′-(2-(piperazin-1-yl)-6-(1H-pyrazol-4-yl)pyridin-4-yl)-[1,1′-biphenyl]-4-yl)-3-methyl-1H-imidazol-2(3H)-one] |
| 0.3 to 30 | 1 to 10 | Cn1ccn(-c2ccc(-c3cc(F)cc(-c4cc(-c5ccn[nH]5)nc(N5CCNCC5)c4)c3O)cc2Cl)c1=O [Example 553, 1-(3-chloro-5′-fluoro-2′-hydroxy-3′-(2-(piperazin-1-yl)-6-(1H-pyrazol-5-yl)pyridin-4-yl)-[1,1′-biphenyl]-4-yl)-3-methyl-1H-imidazol-2(3H)-one] |
| 0.3 to 30 | 1 to 10 | Cn1ccn(-c2ccc(-c3cc(F)cc(-c4ccnc(N5CC6CNC(C6)C5)c4)c3O)cc2Cl)c1=O (stereo not shown) [Example 554, 1-(3′-(2-(3,6-diazabicyclo[3.2.1]octan-3-yl)pyridin-4-yl)-3-chloro-5′-fluoro-2′-hydroxy-[1,1′-biphenyl]-4-yl)-3-methyl-1H-imidazol-2(3H)-one] |
| 0.3 to 30 | 1 to 10 | C[C@@H]1CN(c2cc(-c3cc(F)cc(-c4ccc(-n5ccn(C)c5=O)c(Cl)c4)c3O)ccn2)C[C@H](C)N1 [Example 555, 1-(3-chloro-3′-(2-((3R,5S)-3,5-dimethylpiperazin-1-yl)pyridin-4-yl)-5′-fluoro-2′-hydroxy-[1,1′-biphenyl]-4-yl)-3-methyl-1H-imidazol-2(3H)-one] |
| 0.3 to 30 | 1 to 10 | Cn1ccn(-c2ccc(-c3cc(F)cc(-c4ccnc(N5CCN[C@H](CO)C5)c4)c3O)cc2Cl)c1=O [Example 556, (S)-1-(3-chloro-5′-fluoro-2′-hydroxy-3′-(2-(3-(hydroxymethyl)piperazin-1-yl)pyridin-4-yl)-[1,1′-biphenyl]-4-yl)-3-methyl-1H-imidazol-2(3H)-one] |
| 0.3 to 30 | 1 to 10 | Cc1cc(-c2ccc(-n3ccn(C)c3=O)c(Cl)c2)c(O)c(-c2cc(N3CCNCC3)c3cc[nH]c3c2)c1 [Example 557, 1-(3-chloro-2′-hydroxy-5′-methyl-3′-(4-(piperazin-1-yl)-1H-indol-6-yl)-[1,1′-biphenyl]-4-yl)-3-methyl-1H-imidazol-2(3H)-one] |
| 0.3 to 30 | 1 to 10 | Cn1ccn(-c2ccc(-c3cc(F)cc(-c4cc(N5CC[C@H](N)C5)c5cn[nH]c5c4)c3O)cc2Cl)c1=O [Example 558, (S)-1-(3′-(4-(3-aminopyrrolidin-1-yl)-1H-indazol-6-yl)-3-chloro-5′-fluoro-2′-hydroxy-[1,1′-biphenyl]-4-yl)-3-methyl-1H-imidazol-2(3H)-one] |
| 30 to 300 | 0.01 to 1 | Cn1ccn(-c2ccc(-c3cc(F)cc(-c4ccnc(N5CCNC6(CC6)C5)c4)c3O)cc2Cl)c1=O [Example 559, 1-(3′-(2-(4,7-diazaspiro[2.5]octan-7-yl)pyridin-4-yl)-3-chloro-5′-fluoro-2′-hydroxy-[1,1′-biphenyl]-4-yl)-3-methyl-1H-imidazol-2(3H)-one] |
| 30 to 300 | 1 to 10 | Cn1ccn(-c2ccc(-c3cc(F)cc(-c4ccnc(N5CCN6C(=O)OC[C@@H]6C5)c4)c3O)cc2Cl)c1=O [Example 560, (S)-7-(4-(3′-chloro-5-fluoro-2-hydroxy-4′-(3-methyl-2-oxo-2,3-dihydro-1H-imidazol-1-yl)-[1,1′-biphenyl]-3-yl)pyridin-2-yl)tetrahydro-1H-oxazolo[3,4-a]pyrazin-3(5H)-one] |
| 0.3 to 30 | 0.01 to 1 | Cn1ccn(-c2ccc(-c3cc(F)cc(-c4cncc(N5CCNC(C)(C)C5)c4)c3O)cc2Cl)c1=O [Example 561, 1-(3-chloro-3′-(5-(3,3-dimethylpiperazin-1-yl)pyridin-3-yl)-5′-fluoro-2′-hydroxy-[1,1′-biphenyl]-4-yl)-3-methyl-1H-imidazol-2(3H)-one] |
| 0.3 to 30 | 0.01 to 1 | Cc1cc(-c2ccc(-n3ccn(C)c3=O)c(Cl)c2)c(O)c(-c2cc(N3CCNCC3)c3nccnc3c2)c1 [Example 562, 1-(3-chloro-2′-hydroxy-5′-methyl-3′-(8-(piperazin-1-yl)quinoxalin-6-yl)-[1,1′-biphenyl]-4-yl)-3-methyl-1H-imidazol-2(3H)-one] |
| 0.3 to 30 | 0.01 to 1 | Cn1ccn(-c2ccc(-c3cc(F)cc(-c4ccnc(N5CCNC(C)(C)C5)c4)c3O)cc2Cl)c1=O [Example 563, 1-(3-chloro-3′-(2-(3,3-dimethylpiperazin-1-yl)pyridin-4-yl)-5′-fluoro-2′-hydroxy-[1,1′-biphenyl]-4-yl)-3-methyl-1H-imidazol-2(3H)-one] |
| 0.3 to 30 | 0.01 to 1 | Cc1cc(-c2ccc(-n3ccn(C)c3=O)c(Cl)c2)c(O)c(-c2cc(N3CC[C@H](N)C3)c3nc[nH]c3c2)c1 [Example 564] |
| 0.3 to 30 | 0.01 to 1 | Cc1cc(-c2ccc(-n3ccn(C)c3=O)c(Cl)c2)c(O)c(-c2cc(N3CCNCC3)c3nn[nH]c3c2)c1 [Example 565] |
| 0.3 to 30 | 0.01 to 1 | Cc1cc(-c2cc(-c3cn[nH]c3)nc(N3CCNCC3)c2)c(O)c(-c2ccc(-n3ccn(C)c3=O)c(Cl)c2)c1 [Example 566] |
| 0.3 to 30 | 1 to 10 | Cc1cc(-c2ccc(-n3ccn(C)c3=O)c(Cl)c2)c(O)c(-c2cc(N3CCN[C@H](C)C3)c3cc[nH]c3c2)c1 [Example 567] |
| 0.3 to 30 | 0.01 to 1 | Cn1ccn(-c2ccc(-c3cc(F)cc(-c4cc(-c5ccn[nH]5)cc(N5CCNCC5)c4)c3O)cc2Cl)c1=O [Example 568] |
| 30 to 300 | 1 to 10 | Cc1cc(-c2cc(-c3ccn[nH]3)cc(N3CCNCC3)c2)c(O)c(-c2ccc(-n3ccn(C)c3=O)c(Cl)c2)c1 [Example 569] |
| 0.3 to 30 | 1 to 10 | Cc1cc(-c2cc(-c3cn[nH]c3)cc(N3CCNCC3)c2)c(O)c(-c2ccc(-n3ccn(C)c3=O)c(Cl)c2)c1 [Example 570] |
| 0.3 to 30 | 1 to 10 | Cn1ccn(-c2ccc(-c3cc(F)cc(-c4cc(-c5cn[nH]c5)cc(N5CCNCC5)c4)c3O)cc2Cl)c1=O [Example 571] |
| 0.3 to 30 | 0.01 to 1 | Cn1ccn(-c2ccc(-c3cc(F)cc(-c4cncc(N5CC6CNC(C6)C5)c4)c3O)cc2Cl)c1=O (stereo not shown) [Example 572] |
| 0.3 to 30 | 0.01 to 1 | Cc1cc(-c2ccc(-n3ccn(C)c3=O)c(Cl)c2)c(O)c(-c2cc(N3CCN[C@H](C)C3)c3nccnc3c2)c1 [Example 574] |
| 0.3 to 30 | 0.01 to 1 | Cc1cc(-c2ccc(-n3ccn(C)c3=O)c(Cl)c2)c(O)c(-c2cc(N3CC[C@H](N)C3)c3nccnc3c2)c1 [Example 575] |
| 0.3 to 30 | 0.01 to 1 | C[C@@H]1CN(c2cc(-c3cc(F)cc(-c4ccc(-n5ccn(C)c5=O)c(Cl)c4)c3O)cc3c2ncn3C)CCN1 [Example 576] |

| Structure (SMILES) | GI50 [1] [nM] | IC50 [2] [nM] |
| --- | --- | --- |
| Cn1ccn(-c2ccc(-c3cc(F)cc(-c4cc(N5CC6CCC(C5)N6)c5cn[nH]c5c4)c3O)cc2Cl)c1=O [Example 573] | 0.3 to 30 | 0.01 to 1 |
